Assay results: patent US20260191863A1, “PYRROLOPYRIMIDINE COMPOSITIONS FOR TREATMENT OF ITK MEDIATED CONDITIONS” (ACLARIS THERAPEUTICS, INC., priority 2022, published 2026)
Several values for one entry are separate records, joined by “and”; a condition that tells them apart may be missing. Equal entries are not always repeated. Where two headings read alike, the source gives them in different places.

Legend:
[1] = Phase 1 SAD study: safety and tolerability; format: in vivo, human
Procedure: Primary Endpoints—Number and percentage of adverse events (AEs) and serious adverse events (SAEs); mean change from baseline in laboratory values, vital signs, and electrocardiograms (ECGs) abnormalities.
Type of Study—This was an FIH, randomized, observer-blind, placebo-controlled study designed to evaluate the safety, tolerability, PK, and PD of Compound I in healthy subjects. The study consisted of: single ascending dose (SAD) cohorts (1-80 mg/day) plus formulation bridging and food effect (FE) cohorts.
Approximately 64 male and female subjects were enrolled into 8 planned cohorts in the SAD study. In each cohort, a total of 8 subjects were randomized to receive a single oral capsule dose of Compound I (n=6) or placebo (n=2) in the morning with approximately 240 mL of water after an overnight fast of at least 8 hours.

ITK (IL2 mRNA) = experiment: SAD ex vivo PD: αCD3/αCD28 stimulated IL2 mRNA production; format: in vivo; details: Homo sapiens
From the text: Secondary Endpoints—Compound I plasma concentrations. Mean change from baseline in ex vivo stimulated pSTAT5 and pSTAT1 (signal transducer and activator of transcription); and in ex vivo stimulated IFNγ mRNA (interferon gamma messenger ribonucleic acid).
Summary of SAD data: FIGS. 4-8 and 9-13 show the SAD dose response, SAD exposure response, and SAD calculated response at Cmax by dose respectively for ITK (IL2 mRNA), ITK (IFNγ mRNA), JAK3 (pSTAT5, lymph), JAK3 (pSTAT5, CD3′ T), and ITK & JAK (IFNγ protein). Clinical and pre-clinical IC50 data for ITK (IL2 mRNA), ITK (IFNγ mRNA), JAK3 (pSTAT5, lymph), JAK3 (pSTAT5, CD3^+ T), and ITK & JAK (IFNγ protein) from the SAD study is shown in table 4.

ITK & JAK (IFNγ protein) = experiment: Pre-clinical human whole blood αCD3 + IL-15/IFNγ (18 hr); format: cell-based
[2] = test system: IL15 stimulated IFNγ protein; experiment: Pre-clinical human whole blood IL-15/IFNγ (5 hr); format: cell-based
[3] = Phase 1 MAD study: safety and tolerability; format: in vivo, human; details: for AE of Special Interest (events) / AEs (events) / ≥Grade 2 (events): 14 days
From the text: Primary Endpoints—Number and percent of adverse events (AEs) and serious adverse events (SAEs); mean change from baseline in laboratory values, vital signs, and electrocardiograms (ECGs).
Overall Design—This was a randomized, Investigator and participant-blind. Sponsor-unblinded, placebo-controlled study designed to evaluate the safety, tolerability, PK, and PD of Compound I in healthy participants. The study consisted of multiple cohorts assessing ascending doses of Compound I.
Approximately 60 participants were enrolled into 5 cohorts. At each dose level/cohort, a total of 10 participants were randomized to receive 2 weeks of oral doses of Compound I (n=8) or placebo (n=2). In Cohort 3, 20 participants were randomized to receive multiple oral doses of Compound I QD (n=8), Compound I TID (n=8), placebo QD (n=2), or placebo TID (n=2).
The study started with a planned dose of 5 mg twice daily (BID). Escalation to the next higher cohort was dependent on safety and PK data from all participants in the previous cohorts and was based on data from at least 6 participants up to at least 48 hours after the last dose. In no instance did the dose escalation steps exceed 3-fold the prior dose level.

[4] = 13 week toxicology and toxicokinetic study in cynomolgus monkeys; format: in vivo, cynomolgus monkey; details: for AUC(0-t) / Cmax: in vivo
From the text: Purpose: Evaluation of toxicity and toxicokinetic (TK) for Compound I, following daily dosing for 13 weeks.

C=CC(=O)N1C[C@H](Nc2ncnc3[nH]cc([C@H]4CC4(F)F)c23)CC[C@@H]1C [Compound I, 1-((2S,5R)-5-((5-((R)-2,2-difluorocyclopropyl)-7H-pyrrolo[2,3-d]pyrimidin-4-yl)amino)-2-methylpiperidin-1-yl)prop-2-en-1-one]
Deaths, serious AEs, discontinuations due to AEs ([1]; SAD): no deaths, serious AEs, or discontinuations due to AEs
Safety and tolerability conclusion ([1]; SAD): safe and well tolerated
Severity of TEAEs ([1]; SAD): mild and transient
Transient increase in CK at follow-up ([1]; SAD highest dose group (80 mg)): 2 subjects
Transient increase in transaminases at follow-up ([1]; SAD highest dose group (80 mg)): 1 subject
Number of TEAEs in Compound I treated subjects ([1]; SAD, 13 subjects): 14
Changes in WBC count ([1]; SAD, during treatment and at follow-up): No clinically meaningful changes
EC50 (ITK (IL2 mRNA); SAD study, read-out: Clinical EC50): 15.2 nM
EC50 (ITK (IL2 mRNA); read-out: SAD EC50): 0.0055 µg/mL and 15.2 nM
Potency relative to Ritlecitinib, αCD3 + IL-15/IFNγ (18 hr) (ITK & JAK (IFNγ protein)): (3.3 fold*)
IC50 (ITK & JAK (IFNγ protein); Homo sapiens): 0.0036 µg/mL and 10.1 nM
EC50 (ITK & JAK (IFNγ protein); Homo sapiens, 18 h, read-out: Human Whole Blood EC50, αCD3 + IL-15/IFNγ (18 hr)): 10 nM
EC50 (ITK & JAK (IFNγ protein); Homo sapiens, read-out: Pre-clinical EC50): 10.2 ± 4.1 nM
EC50 (ITK & JAK (IFNγ protein); human whole blood dual stimulation, read-out: Human Compound I Cp to reach HWB dual stim EC50 (in vitro report)): ≥ 4.19 ng/mL
Potency relative to Ritlecitinib, IL-15/IFNγ (5 hr) [2]: (6.5 fold*)
IC50 ([2]; Homo sapiens): 0.0029 µg/mL and 8 nM
EC50 ([2]; Homo sapiens, 5 h, read-out: Human Whole Blood EC50, IL-15/IFNγ (5 hr)): 8 nM
Deaths, serious AEs, discontinuations due to AEs ([3]; MAD): no deaths, serious AEs, or discontinuations due to AEs
Safety and tolerability conclusion ([3]; MAD): safe and well tolerated
Notable events: single episode of transient diarrhea ([3]; MAD 5 mg BID): 2 subjects
Notable events: single dermatomal zoster rash 1 week after dosing ended ([3]; MAD 40 mg BID): 1 subject
AE of Special Interest (events) ([3]; MAD cohort 5 mg BID): 3
AEs (events) ([3]; MAD cohort 5 mg BID): 9
≥Grade 2 (events) ([3]; MAD cohort 5 mg BID): 1
AE of Special Interest (events) ([3]; MAD cohort 10 mg TID): 0
AEs (events) ([3]; MAD cohort 10 mg TID): 3
≥Grade 2 (events) ([3]; MAD cohort 10 mg TID): 0
AE of Special Interest (events) ([3]; MAD cohort 15 mg BID): 0
AEs (events) ([3]; MAD cohort 15 mg BID): 0
≥Grade 2 (events) ([3]; MAD cohort 15 mg BID): 0
AE of Special Interest (events) ([3]; MAD cohort 25 mg BID): 1
AEs (events) ([3]; MAD cohort 25 mg BID): 4
≥Grade 2 (events) ([3]; MAD cohort 25 mg BID): 0
AE of Special Interest (events) ([3]; MAD cohort 30 mg QD): 0
AEs (events) ([3]; MAD cohort 30 mg QD): 3
≥Grade 2 (events) ([3]; MAD cohort 30 mg QD): 0
AE of Special Interest (events) ([3]; MAD cohort 40 mg BID): 1
AEs (events) ([3]; MAD cohort 40 mg BID): 4
≥Grade 2 (events) ([3]; MAD cohort 40 mg BID): 1
Safety and tolerability ([3]; MAD, up to 2 weeks administration in HV): safe and tolerable
No observed adverse effect level ([4]; cynomolgus monkey, daily dosing 13 weeks): 3 mpk
AUC(0-t) ([4]; cynomolgus monkey, 3 mg/kg, monkey 3 mpk, Day 1, read-out: AUC0-24): 153 ± 29.1 ng·h/mL
Cmax ([4]; cynomolgus monkey, 3 mg/kg, monkey 3 mpk, Day 1, read-out: Cmax): 104 ± 48.9 ng/mL
AUC(0-t) ([4]; cynomolgus monkey, 3 mg/kg, monkey 3 mpk, Day 28, read-out: AUC0-24): 412 ± 191 ng·h/mL
Cmax ([4]; cynomolgus monkey, 3 mg/kg, monkey 3 mpk, Day 28, read-out: Cmax): 304 ± 156 ng/mL
AUC(0-t) ([4]; cynomolgus monkey, 3 mg/kg, monkey, NOAEL 3 mpk, read-out: AUC0-24 h at NOAEL): 356 ng·h/mL
Cmax ([4]; cynomolgus monkey, 3 mg/kg, monkey, NOAEL 3 mpk, read-out: Cmax at NOAEL): 232 ng/mL
AUC(0-t) ([4]; cynomolgus monkey, 6 mg/kg, monkey 6 mpk, Day 1, read-out: AUC0-24): 692 ± 223 ng·h/mL
Cmax ([4]; cynomolgus monkey, 6 mg/kg, monkey 6 mpk, Day 1, read-out: Cmax): 401 ± 153 ng/mL
AUC(0-t) ([4]; cynomolgus monkey, 6 mg/kg, monkey 6 mpk, Day 28, read-out: AUC0-24): 1880 ± 911 ng·h/mL
Cmax ([4]; cynomolgus monkey, 6 mg/kg, monkey 6 mpk, Day 28, read-out: Cmax): 985 ± 475 ng/mL
AUC(0-t) ([4]; cynomolgus monkey, 6 mg/kg, monkey 6 mpk, Day 91, read-out: AUC0-24): 1410 ± 6190 ng·h/mL
Cmax ([4]; cynomolgus monkey, 6 mg/kg, monkey 6 mpk, Day 91, read-out: Cmax): 784 ± 512 ng/mL
AUC(0-t) ([4]; cynomolgus monkey, 12 mg/kg, monkey 12 mpk, Day 1, read-out: AUC0-24): 2510 ± 1420 ng·h/mL
Cmax ([4]; cynomolgus monkey, 12 mg/kg, monkey 12 mpk, Day 1, read-out: Cmax): 975 ± 648 ng/mL
AUC(0-t) ([4]; cynomolgus monkey, 12 mg/kg, monkey 12 mpk, Day 28, read-out: AUC0-24): 6930 ± 3790 ng·h/mL
Cmax ([4]; cynomolgus monkey, 12 mg/kg, monkey 12 mpk, Day 28, read-out: Cmax): 2160 ± 724 ng/mL
AUC(0-t) ([4]; cynomolgus monkey, 12 mg/kg, monkey 12 mpk, Day 91, read-out: AUC0-24): 6430 ± 3660 ng·h/mL
Cmax ([4]; cynomolgus monkey, 12 mg/kg, monkey 12 mpk, Day 91, read-out: Cmax): 1960 ± 677 ng/mL
Ratio over time (D 91/D 1) AUC ([4]; monkey 3 mpk): 2.4
Ratio over time (D 91/D 1) Cmax ([4]; monkey 3 mpk): 2.8
Ratio over time (D 91/D 1) AUC ([4]; monkey 6 mpk): 2.2
Ratio over time (D 91/D 1) Cmax ([4]; monkey 6 mpk): 2.2
Ratio over time (D 91/D 1) AUC ([4]; monkey 12 mpk): 2.6
Ratio over time (D 91/D 1) Cmax ([4]; monkey 12 mpk): 2.5
Morbidity / un-scheduled sacrifice ([4]; monkey, 12 mpk, 12 mg/kg): morbidity and significant symptoms necessitating un-scheduled sacrifice and dosing holiday
Effects on body weight (overall), food consumption (overall), clinical pathology in general, anatomic pathology, ophthalmology ([4]; monkey, 13 weeks): No adverse effects observed
Opportunistic infection in GI tract ([4]; monkey, 13 weeks): dose-dependent opportunistic infection in GI tract
Adverse effects ([4]; monkey, more significant and persistent in mid/high dose groups): Liquid and non-formed feces associated with dehydration
